The data set is described as follows: Rheological studies of the hydrogel (strain, frequency, shear rate, time sweep, step strain). The class given is physicochemical. As to conditions: fixed strain 0.1%, frequency 5 Hz, 37° C.

Ends that are not written are not given here. * marks the point of attachment. Fmoc = O=C(OCC1c2ccccc2-c2ccccc21)*

The text below walks through data of US20240358889A1, “PEPTIDE-CONTAINING HYBRID HYDROGEL FOR BONE REGENERATION” (Ramot at Tel-Aviv University Ltd., priority 2022, published 2024).

With Fmoc-Phe-Phe [FmocFF], the “storage modulus G′” value is 4,708 Pa.
